Reference: US20100081162A1, “METHOD OF EVALUATING ANTIWRINKLE SUBSTANCE AND METHOD OF ASSESSING THE SKIN” (POLA CHEMICAL INDUSTRIES INC., priority 2007, published 2010)

Columns and labels:
[1] = test system: α2 protein gene (ITGA2); assay: Effect of farrerol on expression amount of α2 protein gene (real-time PCR); assay type: cell-based; details: normal human fibroblasts, 5 days
Protocol: (§1) In the normal human fibroblasts cultivated in a culture solution with or without farrerol for 5 days, the expression amounts of the integrin gene and the type-I collagen gene as a main component of dermal collagen were evaluated by the real-time PCR. The procedure followed the procedure in Example 1 except for the used primer. It should be noted that the following QuantiTect (registered trademark) Primer Assays was used as a primer. […] Specifically, the expression amount of the β1 protein gene increased by a factor of about 1.9, the expression amount of the α2 protein gene increased by a factor of about 2.6, and the expression amount of the α5 protein gene increased by a factor of about 1.7.

[2] = test system: collagen fiber bundles; assay: Tightness in collagen fiber bundles in collagen gel with NHDF in the presence of heparin (SEM); assay type: cell-based, human
[3] = test system: β1 protein gene (ITGB1); assay: Effect of farrerol on expression amount of β1 protein gene (real-time PCR); assay type: cell-based; details: normal human fibroblasts, 5 days
Protocol: as §1

[4] = test system: type-I collagen gene (COL1A1, COL1A2); assay: Effect of farrerol on expression amount of type-I collagen gene (real-time PCR); assay type: cell-based; details: normal human fibroblasts, 5 days
Protocol: as §1

[5] = test system: integrin gene; assay: Effect of farrerol on expression amount of integrin gene (real-time PCR); assay type: cell-based; details: normal human fibroblasts, 5 days
Protocol: as §1

[6] = test system: α5 protein gene (ITGA5); assay: Effect of farrerol on expression amount of α5 protein gene (real-time PCR); assay type: cell-based; details: normal human fibroblasts, 5 days
Protocol: as §1

Molecule | increase in the expression amount of the α2 protein gene (factor) [1] | effect on inhibition of tightness of collagen fiber bundles due to heparin ([2]; NHDF in collagen gel, 0.1% or 1% heparin, farrerol 10^−6% or 10^−7% at final, 5 days, SEM) | increase in the expression amount of the β1 protein gene (factor) [3] | expression amount of the type-I collagen gene [4] | increase in the expression amount of the integrin gene (factor, with vs without farrerol) [5] | increase in the expression amount of the α5 protein gene (factor) [6] | effect on tightness in collagen fiber bundles ([2]; heparin alone)
Cc1c(O)c(C)c2c(c1O)C(=O)C[C@@H](c1ccc(O)cc1)O2 [farrerol] | about 2.6 factor | suppressed inhibition of tightness of collagen fiber bundles due to heparin | about 1.9 factor | not significantly increased | ≥ 1.5 factor | about 1.7 factor | –
Heparin | – | – | – | – | – | – | inhibitory effect
